Results taken from US20230365673A1, “MEANS FOR REDUCING RADIO- AND CHEMOTHERAPY RESISTANCE AND ADVERSE EFFECTS” (JOHANN WOLFGANG GOETHE-UNIVERSITÄT FRANKFURT AM MAIN, priority 2020, published 2023).

Tests used:
[1] = system: APTKA conditioned fibroblasts; assay: Fibroblast morphology after fractionated irradiation (3×2 Gy); format: cell-based, mouse
Description: (A) Schematic illustration of APTKA organoids supernatant collection and treatment of colon fibroblasts from unchallenged wildtype C57BL/6 mice for 12 h followed by 3×2 Gy irradiation. Microscopic, proteomic & transcriptomic analysis were performed 72 h post first irradiation. (B) Microscopic captures of non-irradiated wildtype (WT) and APTKA conditioned fibroblasts. Remaining captures belong to irradiated fibroblasts: WT, IL-1α (1 μg/mL) stimulated WT, and APTKA conditioned media minus or plus anakinra (20 μg/mL) treated fibroblasts. Scale bars=200 μm. (C) Mass spectrometric analysis of matrisome profiles of 3×2 Gy irradiated (n=8) and non-irradiated (n=8) APTKA conditioned fibroblasts. […] (G) Immunoblot analysis of untreated and irradiated APTKA conditioned fibroblasts. Representative results from one experiment which has been independently repeated 2 times. (H) SA-ß gal staining of untreated and irradiated APTKA fibroblasts. Scale bars=100 μm. (I and J) p21 and pH2AX immunofluorescent staining of untreated and irradiated APTKA fibroblasts. Scale bars=[…]. Data are mean±SD. ** […] and *** p<0.001 by t-test. (K) Nitrite concentration determined by Griess assay in conditioned media from WT, APTK media, APTKA media, IL-1α (1 μg/mL) stimulated and APTKA plus anakinra (20 μg/mL) treated fibroblasts for 72 h (n=10 independent wells per group). […]

[2] = system: primary mouse colon fibroblasts; assay: Inflammatory gene expression (RT-qPCR/RNAseq) in fibroblasts treated with APTKA conditioned medium; format: cell-based
Description: (A) Schematic illustration of APTKA or APTK organoids supernatant collection and treatment of primary mouse colon fibroblasts of unchallenged wildtype C57BL/6 mice. […] (F) Relative expression analysis by RT-qPCR of inflammatory genes in untreated wildtype and APTKA conditioned medium treated fibroblasts in the presence of IKKß inhibitor ML120B (30 μM) and p38 MAPK inhibitor SB203580 (10 μM) for 24 h (n=4 independent wells per group). Data are mean±SD. p<0.05 by one-way ANOVA followed by Tukey's multiple comparisons test. Representative results from one experiment which has been independently repeated 3 times. (G and H) RNA sequencing analysis of APTKA (n=3) and APTK (n=3) organoids: (G) heat map analysis; (H) differentially expressed cytokines in APTKA (Log 2 fold change≤−1) compared to APTK organoids (log 2 fold Change≥1). p-value<0.05. (I) RT-qPCR analysis of inflammatory genes in APTKA conditioned fibroblasts treated with control IgG, α-IL-1α, α-IL-33, α-TNF-α, α-BAFF or α-CXCL16 neutralizing antibodies (2 μg/mL each) for 24 h (n=4 independent wells per group). Data are mean±SD. **** p<0.0001 by one-way ANOVA followed by Tukey's multiple comparisons test. Experiment performed twice. (J) RNA expression profiles of inflammatory genes in APTKA conditioned fibroblasts stimulated for 24 h then subjected to anakinra (10 μg/mL), APTKA fresh or regular medium treatments for another 24 h (n=4 independent wells per condition). Data are mean±SD; p<0.05 by one-way ANOVA followed by Tukey's multiple comparisons test. Representative results from one experiment which has been independently repeated 2 times.
To examine whether APTK and APTKA tumour organoids differentially affect surrounding fibroblasts in tumours directly in a paracrine manner, supernatants were collected from both tumour organoid lines and treated primary intestinal fibroblasts of unchallenged wildtype mice for 24 hours with the two different tumour-conditioned media ex vivo (FIG. 3A). RNAseq analysis confirmed distinct gene expression patterns in fibroblasts exposed to the two organoid supernatants (FIG. 3B).
The inventors then aimed to identify the upstream factors secreted by APTKA organoids that were responsible for activating NF-κB and p38 in fibroblasts. To this end RNAseq analysis of APTK and APTKA tumour organoids were performed and identified several differentially expressed genes encoding cytokines (FIG. 3G, H). Using neutralizing antibodies, NF-κB and p38 inducing cytokines TNFα, IL-1α, IL-33, BAFF or CXCL16 were blocked in APTKA supernatants and expression of Cxcl1, Cxcl2, Cxcl5 and Ilia as inflammatory marker genes in fibroblasts was examined.
To do so, fibroblasts were stimulated for 24 hours with APTKA conditioned medium before adding anakinra, adding fresh APTKA medium or changing medium to regular medium.

| Substance | APTKA-induced elongated, spindle like morphology after irradiation ([1]; wildtype fibroblasts, APTKA conditioned medium plus anakinra 20 μg/mL) | expression of Cxcl1, Cxcl5 and Mmp13 in already polarized fibroblasts ([2]; 24 h APTKA conditioned medium, then anakinra 10 μg/mL for another 24 h) | upregulation of pro-inflammatory genes in fibroblasts ([2]; APTKA conditioned medium plus anakinra, data not shown) | fibroblast morphology after irradiation ([1]; recombinant IL-1α 1 μg/mL alone) | transcriptomic profile induced in fibroblasts ([2]; recombinant IL-1α alone, compared with APTKA supernatant, data not shown) |
| --- | --- | --- | --- | --- | --- |
| anakinra: Kineret®, an interleukin-1 receptor antagonist | prevented the APTKA-induced phenotype | completely reverted expression of these genes | prevented upregulation of pro-inflammatory genes | – | – |
| recombinant IL-1α: recombinant cytokine used to stimulate fibroblasts | – | – | – | sufficient to cause a comparable morphology after irradiation | sufficed to induce a similar transcriptomic profile as APTKA supernatant |
